Among the data in publication PMC9927415, “Tyrosine Kinase Inhibitors Display Potent Activity against Cryptosporidium parvum” (Microbiology Spectrum, 2022) are inhibition values, retold here.

Assay in all cases: KINOMEscan competitive binding
Assay [1] addresses T1, PKN2 (Homo sapiens, UniProt Q16513).
T1 construct: purchased DiscoverX (KINOMEscan)
The settings on record: n=1, read-out: Percent inhibition, PKN2.

Assay [2] concerns the target T2, PRKD2 (Homo sapiens, UniProt Q9BZL6).
T2 construct: purchased DiscoverX (KINOMEscan)
T2 sequence (Q9BZL6 1-878): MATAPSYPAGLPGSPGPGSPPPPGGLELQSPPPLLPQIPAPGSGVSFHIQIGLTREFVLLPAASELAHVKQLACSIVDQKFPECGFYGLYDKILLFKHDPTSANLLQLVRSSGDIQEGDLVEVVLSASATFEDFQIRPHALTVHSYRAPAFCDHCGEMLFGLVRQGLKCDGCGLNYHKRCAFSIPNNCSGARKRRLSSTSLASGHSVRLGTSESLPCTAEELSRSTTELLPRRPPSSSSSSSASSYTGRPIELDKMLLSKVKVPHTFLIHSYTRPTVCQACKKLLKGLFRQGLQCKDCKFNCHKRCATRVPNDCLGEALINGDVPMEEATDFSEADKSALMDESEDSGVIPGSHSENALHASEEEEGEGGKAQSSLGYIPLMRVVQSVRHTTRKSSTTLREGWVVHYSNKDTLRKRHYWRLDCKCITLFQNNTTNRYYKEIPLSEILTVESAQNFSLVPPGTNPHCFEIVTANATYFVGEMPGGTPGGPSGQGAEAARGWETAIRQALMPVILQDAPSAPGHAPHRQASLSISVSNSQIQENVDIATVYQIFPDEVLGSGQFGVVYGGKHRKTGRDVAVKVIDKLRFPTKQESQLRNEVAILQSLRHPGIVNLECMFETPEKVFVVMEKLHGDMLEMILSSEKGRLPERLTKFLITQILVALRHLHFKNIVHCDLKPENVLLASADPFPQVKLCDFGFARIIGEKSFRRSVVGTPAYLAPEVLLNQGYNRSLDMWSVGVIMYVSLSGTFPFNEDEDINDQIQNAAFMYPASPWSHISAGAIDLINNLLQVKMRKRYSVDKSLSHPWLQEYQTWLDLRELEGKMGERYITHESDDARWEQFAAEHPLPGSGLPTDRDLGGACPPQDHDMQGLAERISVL
Conditions: n=1, read-out: Percent inhibition, PRKD2.

The target of assay [3] is T3, PRKG1 (Homo sapiens, UniProt Q13976).
T3 construct: purchased DiscoverX (KINOMEscan)
T3 sequence (Q13976 1-671): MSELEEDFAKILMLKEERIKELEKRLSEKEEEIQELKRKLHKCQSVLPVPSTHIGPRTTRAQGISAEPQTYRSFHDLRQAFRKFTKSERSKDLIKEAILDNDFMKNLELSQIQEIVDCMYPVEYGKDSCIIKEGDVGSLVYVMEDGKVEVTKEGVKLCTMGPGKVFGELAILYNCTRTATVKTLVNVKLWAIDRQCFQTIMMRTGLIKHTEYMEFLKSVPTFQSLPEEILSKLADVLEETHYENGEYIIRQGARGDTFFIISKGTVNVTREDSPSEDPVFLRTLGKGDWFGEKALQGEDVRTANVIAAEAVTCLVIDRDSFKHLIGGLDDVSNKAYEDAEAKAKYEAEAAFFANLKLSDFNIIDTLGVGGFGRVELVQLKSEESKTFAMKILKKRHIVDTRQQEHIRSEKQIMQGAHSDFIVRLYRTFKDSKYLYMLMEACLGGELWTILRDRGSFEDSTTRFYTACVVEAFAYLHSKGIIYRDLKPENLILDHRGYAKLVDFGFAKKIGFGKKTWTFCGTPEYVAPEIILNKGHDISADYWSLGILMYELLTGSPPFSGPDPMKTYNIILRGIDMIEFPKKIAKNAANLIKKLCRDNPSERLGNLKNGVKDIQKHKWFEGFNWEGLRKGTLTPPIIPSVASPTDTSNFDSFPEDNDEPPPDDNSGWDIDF
The settings on record: n=1, read-out: Percent inhibition, PRKG1.

Assay [4] addresses T4, PRKG2 (Homo sapiens, UniProt Q13237).
T4 construct: purchased DiscoverX (KINOMEscan)
T4 sequence (Q13237 1-762): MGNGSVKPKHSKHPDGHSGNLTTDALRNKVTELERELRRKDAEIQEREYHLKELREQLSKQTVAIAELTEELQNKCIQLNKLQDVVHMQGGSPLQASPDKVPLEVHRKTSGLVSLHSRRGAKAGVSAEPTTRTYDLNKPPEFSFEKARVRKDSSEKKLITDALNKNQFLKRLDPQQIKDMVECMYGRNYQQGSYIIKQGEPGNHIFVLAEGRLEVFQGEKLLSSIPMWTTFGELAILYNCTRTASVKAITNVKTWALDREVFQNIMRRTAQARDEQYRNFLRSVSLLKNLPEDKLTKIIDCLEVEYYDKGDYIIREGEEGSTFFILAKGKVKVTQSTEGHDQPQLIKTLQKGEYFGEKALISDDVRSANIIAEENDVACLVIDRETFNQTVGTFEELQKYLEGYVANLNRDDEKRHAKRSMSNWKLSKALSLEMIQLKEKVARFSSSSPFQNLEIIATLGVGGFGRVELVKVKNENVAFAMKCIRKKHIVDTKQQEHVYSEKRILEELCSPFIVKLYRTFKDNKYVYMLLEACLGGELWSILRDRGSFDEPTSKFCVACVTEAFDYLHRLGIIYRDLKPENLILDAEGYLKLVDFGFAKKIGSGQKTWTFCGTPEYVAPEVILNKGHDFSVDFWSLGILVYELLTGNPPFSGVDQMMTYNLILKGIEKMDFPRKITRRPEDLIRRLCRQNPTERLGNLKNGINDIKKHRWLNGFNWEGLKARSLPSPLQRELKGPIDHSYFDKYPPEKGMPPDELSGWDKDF
The settings on record: n=1, read-out: Percent inhibition, PRKG2.

Assay [5] has as its target T5, TRKB (Homo sapiens, UniProt Q16620).
T5 construct: purchased DiscoverX (KINOMEscan)
The settings on record: n=1, read-out: Percent inhibition, TRKB.

Assay [6] has as its target T6, YES (Homo sapiens, UniProt P07947).
T6 construct: purchased DiscoverX (KINOMEscan)
The settings on record: n=1, read-out: Percent inhibition, YES.

T1 sequence (Q16513 whole entry): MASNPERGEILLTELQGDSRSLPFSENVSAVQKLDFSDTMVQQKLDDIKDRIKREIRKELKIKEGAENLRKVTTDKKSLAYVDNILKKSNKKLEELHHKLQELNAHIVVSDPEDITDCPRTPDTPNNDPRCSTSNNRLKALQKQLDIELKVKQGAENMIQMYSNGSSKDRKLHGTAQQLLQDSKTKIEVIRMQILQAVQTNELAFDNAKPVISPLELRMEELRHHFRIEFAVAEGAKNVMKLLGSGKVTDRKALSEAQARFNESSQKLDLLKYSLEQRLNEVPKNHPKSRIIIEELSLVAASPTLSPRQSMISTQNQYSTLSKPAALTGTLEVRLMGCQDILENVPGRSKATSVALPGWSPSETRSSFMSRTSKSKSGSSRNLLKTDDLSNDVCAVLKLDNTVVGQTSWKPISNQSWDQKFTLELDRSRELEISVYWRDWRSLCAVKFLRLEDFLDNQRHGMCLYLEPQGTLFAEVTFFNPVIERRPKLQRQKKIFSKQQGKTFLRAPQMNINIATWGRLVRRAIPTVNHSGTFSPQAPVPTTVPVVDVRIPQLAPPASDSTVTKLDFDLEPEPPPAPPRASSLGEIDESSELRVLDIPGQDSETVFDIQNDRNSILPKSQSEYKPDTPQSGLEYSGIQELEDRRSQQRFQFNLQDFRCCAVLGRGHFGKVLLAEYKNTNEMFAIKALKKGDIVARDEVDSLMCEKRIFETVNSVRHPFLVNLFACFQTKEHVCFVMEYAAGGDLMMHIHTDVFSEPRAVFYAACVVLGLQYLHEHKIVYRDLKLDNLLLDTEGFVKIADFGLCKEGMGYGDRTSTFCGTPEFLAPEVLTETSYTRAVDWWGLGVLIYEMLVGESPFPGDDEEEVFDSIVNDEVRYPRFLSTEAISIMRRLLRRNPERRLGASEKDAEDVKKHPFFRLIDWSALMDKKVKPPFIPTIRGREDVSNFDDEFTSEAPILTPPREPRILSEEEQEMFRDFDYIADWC
T6 sequence (P07947 whole entry): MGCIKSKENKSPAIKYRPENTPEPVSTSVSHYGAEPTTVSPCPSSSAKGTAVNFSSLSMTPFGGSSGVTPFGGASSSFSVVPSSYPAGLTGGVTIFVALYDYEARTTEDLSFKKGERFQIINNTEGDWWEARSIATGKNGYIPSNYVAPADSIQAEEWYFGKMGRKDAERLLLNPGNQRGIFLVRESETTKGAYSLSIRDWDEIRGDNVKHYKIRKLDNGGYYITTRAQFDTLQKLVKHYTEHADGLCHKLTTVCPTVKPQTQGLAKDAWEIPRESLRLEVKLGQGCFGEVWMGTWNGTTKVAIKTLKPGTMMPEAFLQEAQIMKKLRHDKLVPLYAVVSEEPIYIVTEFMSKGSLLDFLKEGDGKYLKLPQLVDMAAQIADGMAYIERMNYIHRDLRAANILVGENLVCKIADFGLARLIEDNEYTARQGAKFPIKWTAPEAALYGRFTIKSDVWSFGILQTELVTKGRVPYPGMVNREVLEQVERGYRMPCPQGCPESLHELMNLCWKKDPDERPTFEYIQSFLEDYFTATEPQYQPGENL
T5 sequence (Q16620 32-822): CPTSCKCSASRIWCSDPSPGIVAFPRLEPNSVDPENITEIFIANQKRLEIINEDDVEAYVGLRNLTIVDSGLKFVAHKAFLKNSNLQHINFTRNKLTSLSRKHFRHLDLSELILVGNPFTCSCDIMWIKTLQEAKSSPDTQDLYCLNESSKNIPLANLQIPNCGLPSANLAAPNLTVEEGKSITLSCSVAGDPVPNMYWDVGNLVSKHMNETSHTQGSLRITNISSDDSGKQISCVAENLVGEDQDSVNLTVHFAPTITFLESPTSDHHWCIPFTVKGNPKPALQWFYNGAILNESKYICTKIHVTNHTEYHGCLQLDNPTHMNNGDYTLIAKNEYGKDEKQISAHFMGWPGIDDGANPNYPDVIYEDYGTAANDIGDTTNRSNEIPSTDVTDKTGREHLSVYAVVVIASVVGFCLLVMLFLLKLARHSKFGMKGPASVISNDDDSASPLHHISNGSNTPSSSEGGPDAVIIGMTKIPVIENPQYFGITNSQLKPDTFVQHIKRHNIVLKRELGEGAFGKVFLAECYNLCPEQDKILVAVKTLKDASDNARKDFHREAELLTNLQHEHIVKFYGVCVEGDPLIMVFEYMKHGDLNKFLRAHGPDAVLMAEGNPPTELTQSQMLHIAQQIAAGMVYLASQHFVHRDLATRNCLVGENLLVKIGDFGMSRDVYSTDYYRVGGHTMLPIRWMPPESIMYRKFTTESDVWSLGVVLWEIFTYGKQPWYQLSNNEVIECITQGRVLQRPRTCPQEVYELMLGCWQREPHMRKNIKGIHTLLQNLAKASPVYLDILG

Turning to `Cc1ccc(O)cc1Nc1ccnc(Nc2cccc(C(N)=O)c2)n1` [Compound 3], the inhibition at 10 µM in assay [1] stood at 0%; in assay [2], 87.1%; in assay [3], 0%; in assay [4], 0%; in assay [5] it was 0%; in assay [6], 100%.
With `Clc1ccc(Nc2ncc(-c3ccccc3)s2)cc1` [Compound 10], the inhibition at 10 µM in assay [1], in assay [2], in assay [3], in assay [4], in assay [5] and in assay [6] was 0% in each case.
For `c1ccc(COc2cccc(-c3ccnc4[nH]ccc34)c2)cc1` [Compound 9], the inhibition at 10 µM in assay [1], in assay [2], in assay [3], in assay [4], in assay [5] and in assay [6] was 0% each time.
As to `Fc1cccc(COc2ccc(Nc3ncnc4c3CN(CCN3CCOCC3)CC4)cc2Cl)c1` [Compound 6], the inhibition at 10 µM in assay [1] was determined as 71.4%; in assay [2], 0%; in assay [3] it was 0%; in assay [4], 0%; in assay [5] it was 0%; in assay [6] it was 0%.
Turning to `C[C@@H](Oc1cc(-c2cnc3ccccn23)sc1C(N)=O)c1ccccc1Cl` [Compound 8], the inhibition at 10 µM was 79.3% in assay [1]; 0% in assay [2]; 0% in assay [3]; 0% in assay [4]; 0% in assay [5]; 0% in assay [6].
In the case of `CN1CCN(c2ccc(Nc3nccc(-c4cnn5ncccc45)n3)cc2C#N)CC1` [Compound 1], the inhibition at 10 µM in assay [1] is 67.8%; in assay [2], 0%; in assay [3] it was 0%; in assay [4], 0%; in assay [5], 96.5%; in assay [6], 92.8%.
Take `Cc1ccc(O)cc1N(C)c1ccnc(Nc2cccc(S(N)(=O)=O)c2)n1` [Compound 4]: the inhibition at 10 µM stood at 0% in assay [1]; 96.6% in assay [2]; 0% in assay [3]; 0% in assay [4]; 91.7% in assay [5]; 100% in assay [6].
Consider `COc1ccc(Nc2nccc(-c3cnn4ncccc34)n2)cc1` [Compound 2], for which the inhibition at 10 µM in assay [1] was found to be 0%; in assay [2], 75.3%; in assay [3] it was 0%; in assay [4], 0%; in assay [5] it was 0%; in assay [6], 0%.
Turning to `Nc1ncc2c(-c3ccncc3)c[nH]c2n1` [Compound 11], the inhibition at 10 µM in assay [1] came to 0%; in assay [2] it was 0%; in assay [3] it was 0%; in assay [4], 0%; in assay [5], 0%; in assay [6] it was 66.2%.
Turning to `COc1cc(Nc2nccc(-c3sc(N)nc3-c3cccc(NC(=O)c4c(F)cccc4F)c3)n2)cc(OC)c1OC` [Compound 7], the inhibition at 10 µM in assay [1] was determined as 0%; in assay [2], 100%; in assay [3], 0%; in assay [4] it was 0%; in assay [5], 0%; in assay [6], 100%.

For orientation: inhibition means the drop in the measured response relative to a control, in per cent.
